# Laboratory results reported in patent publication US9645154B2, “Method for detecting cancer cell” (ARKRAY, Inc., priority 2010, dated 2017).
# Assays:
# [1] = test system: Mixture of blood cells and PC3 cells; assay: Aminolevulinic acid labeling combined with anti-CD45/anti-CD34 and anti-EpCAM antibodies; format: cell-based, human; conditions: ALA: 0.3 mM, FeC12: 0.3 mM, Ascorbic acid: 0.3 mM, 37° C., 60 min, threshold value 216
# Excerpt: Blood was collected from a human subject using a vacuum blood collection tube (with EDTA•2K). Blood cells were separated using HetaSep (STEMCELL Technologies) in accordance with the manufacturer's instructions.
# (§1) In accordance with the conventional method, cultured human prostate cancer cell line (PC3, DS Pharma Biomedical Co., Ltd.) was harvested with trypsin (Invitrogen). The cell suspension of the harvested cancer cells was centrifuged, and the supernatant was removed. The cells were resuspended with Dulbecco's PBS (+) (Nissui Pharmaceutical Co., Ltd.) and centrifuged, and the supernatant was removed again.
# The number of the cells in the suspension of the isolated blood cells was counted using a hemacytometer in accordance with the conventional method. Further, the number of the cells was also counted for the human prostate cancer cell line (PC3) in a similar manner, and the cells were added to the blood cell suspension to give a cell number of 1% of that of the blood cells. […]
# The number of the cells was counted using a hemacytometer in accordance with the conventional method, and then 10^5 to 10^6 cells per sample (cell suspension) was aliquoted. […] The image was captured with a fluorescence microscope (Nikon Corp.). Protoporphyrin IX was detected with the fluorescence filter set 1, the PE-labeled anti-EpCAM antibody was detected with the fluorescence filter set 2, and the FITC-labeled anti-CD45 antibody and the FITC-labeled anti-CD34 antibody were detected with the fluorescence filter set 3.
# Wavelengths for the fluorescence filter set 1: EX (excitation wavelength) 402±7.5 nm, DM 430 nm or longer, BA (fluorescence wavelength) 625±15 nm.
# Wavelengths for the fluorescence filter set 2: EX (excitation wavelength) 535±25 nm, DM 575 nm or longer, BA (fluorescence wavelength) 590 nm or longer.
# Wavelengths for the fluorescence filter set 3: EX (excitation wavelength) 475±15 nm, DM 505 nm or longer, BA (fluorescence wavelength) 525±10 nm. […]
# [2] = test system: human prostate cancer cell line PC3; assay: Aminolevulinic acid (with FeCl2 and ascorbic acid at the same concentration) labeling, fluorescence microscopy image analysis (positive rate); format: cell-based
# Excerpt: as §1, with “PC3 (DS” for “(PC3, DS”, “(Invitrogen). The human gastric cancer cell line SNU-1 (ATCC), which is a suspension cell line, was directly harvested without any trypsin treatment.” for “(Invitrogen).”
# When performing the hemolyzing treatment, the collected blood cell fraction was hemolyzed using ammonium chloride (STEMCELL Technologies) at room temperature according to the manufacture's manuals.
# The number of the cells was counted using a hemacytometer in accordance with the conventional method, and then 10^5 to 10^6 cells per sample (cell suspension) was aliquoted. The sample was centrifuged to remove the supernatant. Subsequently, aminolevulinic acid 5-AMINOLEVULINATE HYDROCHLORIDE (trade name, Cosmo Bio Co., Ltd., at the final concentration given in Table 7 or 8) dissolved in Dulbecco's PBS (+) and FeCl2 and ascorbic acid having the same concentration as that of aminolevulinic acid, respectively, were added thereto, and the cells were suspended well. The number of the cells was adjusted, and then the cells were added dropwise to a 384-well plate. The plate was centrifuged to spin down the cells. The image was captured with a fluorescence microscope (Nikon Corp.).
# The wavelengths for the fluorescence filter set: EX (excitation wavelength): 402±7.5, DM: 430 or longer, BA (fluorescence wavelength): 625±15.
# The acquired images were analyzed using an image analysis software NIS-ELEMENTS (trade name, Nikon Corp.) to evaluate the fluorescence intensity of the cell. […]
compound,measurement,setting,value
"NCC(=O)CCC(=O)O [aminolevulinic acid, 5-amino-4-oxopentanoic acid]",False-positive rate (using α-CD45/34),[1]; FITC-α-CD45/CD34 antibody,0.0%
same,Positive rate,"[1]; PC3 at 1% of blood cells, hemolyzed",85%
same,False-positive rate (without using α-CD45/34),[1],1.1%
same,Positive rate (Cancer cells),"[2]; Prostate cancer, hemolyzed, 0.3 mM, 60 min, 37° C., threshold value 265",92.7%
same,Positive rate (PC3 cells),"[2]; hemolyzed, 0.1 mM, 37° C., 60 min",44%
same,Positive rate (PC3 cells),"[2]; hemolyzed, 0.3 mM, 37° C., 60 min (concentration series)",85%
same,Positive rate (PC3 cells),"[2]; hemolyzed, 1 mM, 37° C., 60 min",88%
same,Positive rate (PC3 cells),"[2]; hemolyzed, 4° C., 0.3 mM, 60 min",31%
same,Positive rate (PC3 cells),"[2]; hemolyzed, 23° C., 0.3 mM, 60 min",54%
same,Positive rate (PC3 cells),"[2]; hemolyzed, 37° C., 0.3 mM, 60 min (temperature series)",80%
same,Positive rate (PC3 cells),"[2]; hemolyzed, 30 min, 0.3 mM, 37° C.",59%
same,Positive rate (PC3 cells),"[2]; hemolyzed, 60 min, 0.3 mM, 37° C. (time series)",93%
same,Positive rate (PC3 cells),"[2]; hemolyzed, 120 min, 0.3 mM, 37° C.",92%
same,Positive rate (PC3 cells),"[2]; without hemolyzing treatment, 0.1 mM, 37° C., 60 min",54%
same,Positive rate (PC3 cells),"[2]; without hemolyzing treatment, 0.3 mM, 37° C., 60 min (concentration series)",88%
same,Positive rate (PC3 cells),"[2]; without hemolyzing treatment, 1 mM, 37° C., 60 min",94%
same,Positive rate (PC3 cells),"[2]; without hemolyzing treatment, 4° C., 0.3 mM, 60 min",13%
same,Positive rate (PC3 cells),"[2]; without hemolyzing treatment, 23° C., 0.3 mM, 60 min",18%
same,Positive rate (PC3 cells),"[2]; without hemolyzing treatment, 37° C., 0.3 mM, 60 min (temperature series)",83%
same,Positive rate (PC3 cells),"[2]; without hemolyzing treatment, 30 min, 0.3 mM, 37° C.",80%
same,Positive rate (PC3 cells),"[2]; without hemolyzing treatment, 60 min, 0.3 mM, 37° C. (time series)",81%
same,Positive rate (PC3 cells),"[2]; without hemolyzing treatment, 120 min, 0.3 mM, 37° C.",84%
